Details of data set [1]: method as in PMID 25987836. Particulars: IV, parent compound for comparison; cited from earlier work.
Data set [2] has as its system Enterococcus faecalis EF1509. In words: Murine peritoneal sepsis model. The format is in vivo, C57BL/6J mice. Conditions: 6jc48-1 100 mg/kg, ampicillin 300 mg/kg. An excerpt:
Care of the mice met or exceeded the standards set forth by the National Institute of Health Guide for the care and use of laboratory animals and the AVMA panel on Euthanasia. All procedures in this study have been approved by the Institutional Animal Care and Use Committee (IACUC) at the University of Maryland Baltimore School of Medicine (Protocol number 02122005). Adult C57BL/6J mice (~18 grams, 8–10 weeks old) were used for all experiments. Mice were obtained from the Jackson Laboratory (Bar Harbor, Maine, USA) and housed in the IHV SPC animal core facility. Mice were fed standard chow (Harlan Laboratories) and water ad libitum. […] Infected animals (n = 5) were subsequently treated by intraperitoneal injection 30 min post-infection with 100 mg/kg of compound in 300 μL sterile saline solution, 5% Tween 80, 10% DMSO (V/V), ampicillin (300mg/kg), or vehicle (sterile saline solution, 5% Tween 80, 10% DMSO (V/V)) as positive and negative controls, respectively. Animals were closely observed during a period of 24 h and mice that show signs of severe sepsis were humanely euthanized. Mice were anesthetized by intraperitoneal injection of ketamine (80-100mg/kg) and xylazine (10–15 mg/kg). Once sedated, blood was collected by cardiac puncture. Immediately after blood collection the mice were euthanized by cervical dislocation. Spleens were harvested aseptically, weighed and homogenized in 500 μl of sterile saline solution using an IKA T10 basic disperser (IKA, Wilmington NC). Spleen homogenates were serially diluted and plated onto BHI agar plates. Bacterial counts were determined following 24 h incubation at 37°C and expressed as CFU per gram for spleen.
We established a murine model for sepsis to evaluate the efficacy of 6jc48-1 as an antibiotic agent in vivo. […] Based on the data obtained in the pharmacokinetic analysis, mice (n = 5) were inoculated intraperitoneally with E. faecalis EF1509 (~5 x 10^8 CFU/ animal) and treated after 30 min with compound 6jc48-1 (100 mg/kg IP), ampicillin (300 mg/kg IP) or vehicle. Animals were monitored for survival and after 24 h spleen samples were collected and analyzed for the presence of bacteria. Bacterial counts were determined by plating serial dilutions on BHI agar plates and compared to control treatment with ampicillin as measures of efficacy (Fig 5).

In data set [3] the test system is E. faecium F118 (VRE). As to the kind of experiment: Antibacterial activity (MIC, broth dilution). Particulars: CLSI, in µg/mL. It is filed as cell-based. The protocol:
(§1) Determination of the Minimal Inhibitory Concentrations (MIC) by dilution was carried out by broth dilution according to CLSI standards.
In general terms: In broth dilution the organism is exposed to a series of concentrations in liquid medium.

Data set [4] has as its system E. faecium EF1509 (VRE). In words: Antibacterial activity (MIC, broth dilution). It is filed as cell-based. Conditions: CLSI, in µg/mL. The protocol:
as §1

Data set [5] has as its system P. aeruginosa ATCC 27853. In words: Antibacterial activity (MIC, broth dilution). It is filed as cell-based. Particulars: CLSI. The procedure:
as §1

Data set [6] is described as follows: Liver microsome stability. It is filed as in vitro ADME. Particulars: human liver microsomes, pH 7.4, 1h 37 °C. The procedure:
The in vitro microsome stability assay was performed using human liver microsomes and a Biomek FXP liquid handling workstation to deliver reagents to a 96 deep well plate on a shaking peltier with temperature controls. Human liver microsomes were purchased from Corning®. The test compound was incubated in an aqueous reaction mixture (200 ul total volume) consisting of human liver microsomes (150 mixed donor pool) and NADPH Regenerating System Solutions A and B (Corning®) in the presence of 100 mM potassium phosphate buffer (pH 7.4). The NADPH solution A comprises nicotinamide adenine dinucleotide phosphate (NADP+) and glucose 6-phosphate and solution B contains glucose-6-phosphate dehydrogenase. Solutions A and B were combined prior to adding to the reaction plate to generate a supply of NADPH. The NADPH was added last to simultaneously initiate the reactions. The final concentration of the test compound was 10 uM and the microsomal protein concentration was 0.5 mg/ml. After incubation at 37°C, the reaction was terminated at 0, 5, 10, 20, 30, 40, 50 and 60 minutes, respectively, by the addition of 600 uL of acetonitrile. Three replicates were run for each time point. The quenched reaction plate was centrifuged at 4500 rpm for 10 minutes. The supernatant was diluted 1:2 in 30% Methanol in water for LC/MS/MS analyses to monitor substrate depletion. Water was substituted for NADPH for the zero time-point samples. A control plate, without NADPH cofactor, was completed on the same day, using the same conditions.
The half-life (t1/2) was obtained using the equation below: t1/2=−0.693/slope
Where slope is the slope of the line formed by ln(% remaining test compound) vs. time. The in vitro intrinsic clearance (CLint) value was calculated using equation: CLint=(0.693/t1/2)(incubation volume(ul)/total microsomal protein(mg))
Background: Liver microsomes are vesicles of endoplasmic reticulum, rich in cytochrome P450 enzymes.

In data set [7] the target is T1, CYP2C19 (Homo sapiens, UniProt P33261).
T1 construct: purchased Corning
T1 sequence (P33261 whole entry): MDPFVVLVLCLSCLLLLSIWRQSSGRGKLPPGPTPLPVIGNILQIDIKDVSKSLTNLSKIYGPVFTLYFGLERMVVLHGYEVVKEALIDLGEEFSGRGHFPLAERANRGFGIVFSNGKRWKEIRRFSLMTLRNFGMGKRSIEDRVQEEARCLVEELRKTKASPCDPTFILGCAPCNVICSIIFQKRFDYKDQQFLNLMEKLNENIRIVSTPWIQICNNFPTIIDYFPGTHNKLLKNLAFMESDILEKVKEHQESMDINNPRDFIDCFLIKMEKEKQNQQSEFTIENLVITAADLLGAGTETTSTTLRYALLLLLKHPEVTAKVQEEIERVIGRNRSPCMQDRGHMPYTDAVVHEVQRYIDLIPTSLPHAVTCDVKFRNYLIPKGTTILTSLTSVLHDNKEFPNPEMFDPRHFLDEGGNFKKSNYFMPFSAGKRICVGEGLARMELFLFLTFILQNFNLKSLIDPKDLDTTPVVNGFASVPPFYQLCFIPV
As to the kind of experiment: Cytochrome P450 inhibition. It is filed as in vitro ADME. Conditions: recombinant human CYP2C19 (Supersomes), pH 7.4, probe CEC, IC50 fluorescence, substrate CEC, read-out: P450 enzyme inhibition IC50 CYP2C19/CEC. The protocol: (§2) The final concentration of each substrate was 1 μM.
(§3) Computation of IC50 values:The background of no-enzyme samples to determine the background value were averaged. The positive control or full-reaction samples to determine the signal value were averaged.
(§4) The percent activity of each sample was calculated as follows:
(§5) [(Test compound metabolite–average background)/(average signal–average background)] X 100 = % activity
(§6) The the IC50 value using non-linear regression was calculated.

In data set [8] the target is T2, CYP3A4 (Homo sapiens, UniProt P08684).
T2 construct: purchased Corning
T2 sequence (P08684 whole entry): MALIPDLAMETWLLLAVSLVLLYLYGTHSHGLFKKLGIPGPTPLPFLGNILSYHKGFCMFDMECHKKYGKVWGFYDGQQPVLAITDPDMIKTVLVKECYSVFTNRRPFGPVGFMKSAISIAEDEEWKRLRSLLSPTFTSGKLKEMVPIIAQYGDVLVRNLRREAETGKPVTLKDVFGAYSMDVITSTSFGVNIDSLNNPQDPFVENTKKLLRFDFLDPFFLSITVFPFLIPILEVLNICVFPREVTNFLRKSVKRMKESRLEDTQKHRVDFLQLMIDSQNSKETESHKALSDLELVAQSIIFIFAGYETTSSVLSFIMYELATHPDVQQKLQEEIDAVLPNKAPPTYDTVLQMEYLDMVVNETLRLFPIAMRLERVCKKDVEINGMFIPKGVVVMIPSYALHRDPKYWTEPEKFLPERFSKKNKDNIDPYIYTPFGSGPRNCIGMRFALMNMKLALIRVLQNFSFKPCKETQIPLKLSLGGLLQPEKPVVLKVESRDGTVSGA
In words: Cytochrome P450 inhibition. It is filed as in vitro ADME. Particulars: IC50 fluorescence. The procedure: as §2, §3, §4, §5, §6

Data set [9] deals with T3, CYP2D6 (Homo sapiens, UniProt P10635).
T3 construct: purchased Corning
T3 sequence (P10635 whole entry): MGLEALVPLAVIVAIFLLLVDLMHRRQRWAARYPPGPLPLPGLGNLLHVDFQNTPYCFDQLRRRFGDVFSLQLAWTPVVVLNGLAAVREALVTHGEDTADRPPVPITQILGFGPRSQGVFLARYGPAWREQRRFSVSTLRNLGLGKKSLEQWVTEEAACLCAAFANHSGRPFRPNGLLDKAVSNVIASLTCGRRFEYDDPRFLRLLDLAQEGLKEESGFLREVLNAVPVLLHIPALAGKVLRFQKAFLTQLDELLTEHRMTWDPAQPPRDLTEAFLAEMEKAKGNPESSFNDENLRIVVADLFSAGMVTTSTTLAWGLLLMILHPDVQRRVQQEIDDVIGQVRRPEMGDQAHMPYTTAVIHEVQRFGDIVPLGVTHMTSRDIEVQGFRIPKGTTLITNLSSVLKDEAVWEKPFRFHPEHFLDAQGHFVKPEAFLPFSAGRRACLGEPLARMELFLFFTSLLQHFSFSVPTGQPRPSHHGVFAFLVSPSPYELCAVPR
In words: Cytochrome P450 inhibition. It is filed as in vitro ADME. Conditions: recombinant human CYP2D6 (Supersomes), pH 7.4, probe AMMC, IC50 fluorescence, substrate AMMC, read-out: P450 enzyme inhibition IC50 CYP2D6/ AMMC. The protocol:
as §2, §3, §4, §5, §6

pIC50: −log10 of the molar value. Several values for one entry are separate records, joined by “and”; a condition that tells them apart may be missing. Equal values may be shown once. Read-outs that look alike come from different tables or passages of the source.

Regarding `CN1/C(=C/C=C/c2cc(-c3ccccc3)cc(-c3ccccc3)[o+]2)C(C)(C)c2ccccc21` [BAS-00127538, (1-Methyl-2,4-diphenyl-6-((1E,3E)-3-(1,3,3-trimethylindolin-2-ylidene)prop-1-en-1-yl)pyryl-1-ium) tetrafluoroborate, reference compound], in data set [1], the AUCInf was 27.9 ng·h/mL; the AUClast is 26.9 ng·h/mL; the Cl_obs was 711 mL/min/kg; the Cmax – broadly, the highest concentration seen after dosing – is recorded as 101 ng/mL. For the same molecule, in data set [1], the T1/2 was 13.2 min and 13.6 min; the Vss_obs was 12.2 L/kg.

Regarding `CN(C)c1ccc(/C=C/c2cc(-c3ccc(Br)cc3)cc(-c3ccc(Br)cc3)[o+]2)cc1` [6jc48-1], the “Bacterial counts in spleen” value in data set [2] (IP treatment 30 min post-infection, spleen collected after 24 h) is given as “significant bacterial clearance”. Besides, the “Survival of infected animals” value in data set [2] (n = 5, IP treatment 30 min post-infection, length of the experiment (24 h)) was “Four out of five”. Moreover, in [3], the “Antibacterial activity (MIC) E. faecium F118 (VRE)” value is recorded as 5.657. Further, the “Antibacterial activity (MIC) E. faecium EF1509 (VRE)” value in [4] is reported as 2.828. The Antibacterial activity (MIC) P. aeruginosa ATCC 27853 in [5] is not below 64 µg/mL. The half-life – broadly, the time in which the quantity being followed falls by half – at 10 uM in data set [6] (read-out: Liver microsome stability Half-life) was more than 60 min. In addition, the microsomal CLint at 10 uM in [6] (read-out: Liver microsome stability clearance) was less than 23 µL/min/mg. Moreover, the pIC50 is less than 5.00 in data set [7]; 5.89 in data set [8] (substrate BFC, read-out: P450 enzyme inhibition IC50 CYP3A4/ BFC); less than 5.00 in data set [8] (human, recombinant human CYP3A4 (Supersomes), pH 7.4, probe DBF, substrate DBF, read-out: P450 enzyme inhibition IC50 CYP3A4/ DBF); less than 5.00 in data set [9].

(Values after article PMC5077133, “Towards Development of Small Molecule Lipid II Inhibitors as Novel Antibiotics” (PLoS ONE, 2016).)
